Test results from patent US6642227B2, “Inhibitors of c-Jun N-terminal kinases (JNK) and other protein kinases” (Vertex Pharmaceuticals Incorporated, priority 2001, dated 2003).

Molecular target: human Lck kinase (UniProt P06239)
Assay: Lck inhibition assay (A: radioactivity-based or B: spectrophotometric coupled-enzyme assay)
Type: biochemical
Settings: read-out: Lck Activity (Ki rating)
Experimental: The compounds were evaluated as inhibitors of human Lck kinase using either a radioactivity-based assay or spectrophotometric assay.
The compounds were assayed as inhibitors of full length bovine thymus Lck kinase (from Upstate Biotechnology, cat. no. 14-106) expressed and purified from baculo viral cells. Lck kinase activity was monitored by following the incorporation of ^33p from ATP into the tyrosine of a random poly Glu-Tyr polymer substrate of composition, Glu:Tyr=4:1 (Sigma, cat. no. P-0275). The following were the final concentrations of the assay components: 0.025 M HEPES, pH 7.6, 10 mM MgCl2, 2 mM DTT, 0.25 mg/ml BSA, 10 μM ATP (1-2 μCi ^33P-ATP per reaction), 5 mg/ml poly Glu-Tyr, and 1-2 units of recombinant human […] kinase. In a typical assay, all the reaction components with the exception of ATP were pre-mixed and aliquoted into assay plate wells. Inhibitors dissolved in DMSO were added to the wells to give a final DMSO concentration of 2.5%. The assay plate was incubated at 30 C. for 10 min before initiating the reaction with ^33P-ATP. After 20 min of reaction, the reactions were quenched with 150 μl of 10% trichloroacetic acid (TCA) containing 20 mM Na3PO4. The quenched samples were then transferred to a 96-well filter plate (Whatman, UNI-Filter GF/F Glass Fiber Filter, cat no. 7700-3310) installed on a filter plate vacuum manifold. Filter plates were washed four times with 10% TCA containing 20 mM Na3PO4 and then 4 times with methanol. 200 μl of scintillation fluid was then added to each well. The plates were sealed and the amount of radioactivity associated with the filters was quantified on a TopCount scintillation counter. The radioactivity incorporated was plotted as a function of the inhibitor concentration. The data was fitted to a competitive inhibition kinetics model to get the Ki for the compound.
The ADP produced from ATP by the human recombinant Lck kinase-catalyzed phosphorylation of poly Glu-Tyr substrate was quanitified using a coupled enzyme assay (Fox et al (1998) Protein Sci 7, 2249). In this assay one molecule of NADH is oxidised to NAD for every molecule of ADP produced in the kinase reaction. The disappearance of NADH can be conveniently followed at 340 nm.
The following were the final concentrations of the assay components: 0.025 M HEPES, pH 7.6, 10 mM MgCl2, 2 mM DTT, 5 mg/ml poly Glu-Tyr, and 50 nM of recombinant human Lck kinase. Final concentrations of the components of the coupled enzyme system were 2.5 mM phosphoenolpyruvate, 200 μM NADH, 30 μg/ml pyruvate kinase and 10 μg/ml lactate dehydrogenase.
In a typical assay, all the reaction components with the exception of ATP were pre-mixed and aliquoted into assay plate wells. Inhibitors dissolved in DMSO were added to the wells to give a final DMSO concentration of 2.5%. The assay plate was incubated at 30° C. for 10 min before initiating the reaction with 150 μM ATP. The absorbance change at 340 nm with time, the rate of the reaction, was monitored on a molecular devices plate reader. The data of rate as a function of the inhibitor concentration was fitted to competitive inhibition kinetics model to get the Ki for the compound.

SMILES | Ki
CCN1CCN(CCCOc2cccc(Nc3nccc(-c4sc(SC)c(C#N)c4C4CCCCC4)n3)c2)CC1 [VI-9] | < 0.1 µM
CSc1sc(-c2ccnc(Nc3cccc(OCCCN4CCNCC4)c3)n2)c(C2CCCCC2)c1C#N [VI-10] | < 0.1 µM
CSc1sc(-c2ccnc(Nc3cccc(OCCCN4CCN(Cc5ccncc5)CC4)c3)n2)c(C2CCCCC2)c1C#N [VI-11] | < 0.1 µM
CSc1sc(-c2ccnc(Nc3cccc(OCCCN4CCCC4)c3)n2)c(C2CCCCC2)c1C#N [VI-12] | < 0.1 µM
CSc1sc(-c2ccnc(Nc3cccc(OCCCn4ccnc4)c3)n2)c(C2CCCCC2)c1C#N [VI-13] | < 0.1 µM
CSc1sc(-c2ccnc(Nc3cccc(OCCCn4cnc(C)c4)c3)n2)c(C2CCCCC2)c1C#N [VI-14] | < 0.1 µM
CSc1sc(-c2ccnc(Nc3cccc(OCCCN4CCOCC4)c3)n2)c(C2CCCCC2)c1C#N [VI-15] | < 0.1 µM
CSc1sc(-c2ccnc(Nc3cccc(OCCCN4CCSCC4)c3)n2)c(C2CCCCC2)c1C#N [VI-16] | < 0.1 µM
CSc1sc(-c2ccnc(Nc3cccc(OCCCN4CCSC4)c3)n2)c(C2CCCCC2)c1C#N [VI-17] | < 0.1 µM
CSc1sc(-c2ccnc(Nc3cccc(OCCCO)c3)n2)c(-c2cccnc2)c1C#N [VI-121] | 0.1 to 1 µM
CSc1sc(-c2ccnc(Nc3cccc(OCCCN4CCCC4)c3)n2)c(-c2cccnc2)c1C#N [VI-122] | < 0.1 µM
CSc1sc(-c2ccnc(Nc3cccc(OCCCN4CCNCC4)c3)n2)c(-c2cccnc2)c1C#N [VI-123] | 0.1 to 1 µM
CSc1sc(-c2ccnc(Nc3cccc(OCCCO)c3)n2)c(-c2cccc(OCc3ccccc3)c2)c1C#N [VI-124] | 0.1 to 1 µM

Results, then the compound that gave them:

Ki | SMILES
< 0.1 µM | CSc1sc(-c2nc(Nc3cccc(N)c3)ncc2C)c(C2CCCCC2)c1C#N [Compound V-8, 5-[2-(3-Aminophenylamino)-5-methyl-pyrimidin-4-yl]-4-cyclohexyl-2-methylsulfanyl-thiophene-3-carbonitrile]
< 0.1 µM | CSc1sc(-c2nc(Nc3cccc(O)c3)ncc2C)c(-c2cccnc2)c1C#N [Compound V-24]
< 0.1 µM | CSc1sc(-c2ccnc(Nc3cccc(S(N)(=O)=O)c3)n2)c(-c2ccccc2)c1C#N [IIa-38, 3-[4-(4-cyano-5-methylsulfanyl-3-phenyl-thiophen-2-yl)-pyrimidin-2-ylamino]-benzenesulfonamide]
< 0.1 µM | N#Cc1c(SCc2ccc(O)cc2)sc(-c2ccnc(Nc3ccccc3)n2)c1-c1ccccc1 [IIa-39, 2-(4-Hydroxy-benzylsulfanyl)-4-phenyl-5-(2-phenylamino-pyrimidin-4-yl)-thiophene-3-carbonitrile]
< 0.1 µM | CSc1sc(-c2ccnc(Nc3cccc(O)c3)n2)c(-c2ccccc2)c1C#N [IIa-40, 5-[2-(3-Hydroxy-phenylamino)-pyrimidin-4-yl]-2-methylsulfanyl-4-phenyl-thiophene-3-carbonitrile]
< 0.1 µM | CSc1sc(-c2ccnc(Nc3cccc(O)c3)n2)c(-c2cccc(-c3ccncc3)c2)c1C#N [IIa-105, 5-[2-(3-Hydroxy-phenylamino)-pyrimidin-4-yl]-2-methylsulfanyl-4-(3-pyridin-4-yl-phenyl)-thiophene-3-carbonitrile]
< 0.1 µM | CSc1sc(-c2ccnc(Nc3cccc(OCCCN(C)CCO)c3)n2)c(C2CCCCC2)c1C#N [VI-1]
< 0.1 µM | COCCNCCCOc1cccc(Nc2nccc(-c3sc(SC)c(C#N)c3C3CCCCC3)n2)c1 [VI-2]
< 0.1 µM | CSc1sc(-c2ccnc(Nc3cccc(OCCCNCCO)c3)n2)c(C2CCCCC2)c1C#N [VI-3]
< 0.1 µM | CSc1sc(-c2ccnc(Nc3cccc(OCCCN4CCC(O)CC4)c3)n2)c(C2CCCCC2)c1C#N [VI-4]
< 0.1 µM | CSc1sc(-c2ccnc(Nc3cccc(OCCCN4CCC(CO)CC4)c3)n2)c(C2CCCCC2)c1C#N [VI-5]
< 0.1 µM | CSc1sc(-c2ccnc(Nc3cccc(OCCCN4CCC[C@H]4CO)c3)n2)c(C2CCCCC2)c1C#N [VI-6]
< 0.1 µM | CSc1sc(-c2ccnc(Nc3cccc(OCCCN4CCN(CCO)CC4)c3)n2)c(C2CCCCC2)c1C#N [VI-7]
< 0.1 µM | CSc1sc(-c2ccnc(Nc3cccc(OCCCN4CCCC(O)C4)c3)n2)c(C2CCCCC2)c1C#N (stereo not drawn) [VI-8]
